# Data: article PMC10253456, “Investigating the Contribution of Major Drug-Metabolising Enzymes to Possum-Specific Fertility Control” (International Journal of Molecular Sciences, 2023)
# Read-outs that look alike come from different tables or passages of the source.
# What was measured:
# [1] = tested on: CYP3A; conditions: avian; for % of control (catalytic activity at 2-fold IC50) / Catalytic activity at 2-fold IC50: compound at estimated 2-fold IC50 (5 µM where none reported); for % of control (catalytic activity at IC50): compound at estimated IC50 (1 µM where none reported)
# Method: (§1) Possums were collected from the Otago Peninsula (Dunedin) and the Okuti Valley, Banks Peninsula (Christchurch) in New Zealand in collaboration with the Otago Peninsula Biodiversity Group and Manaaki Whenua-Landcare Research, respectively. […] Possums were caged and humanely killed by a blow to the head, and the livers were harvested, snap-frozen in liquid nitrogen, and stored in a freezer at −80 °C until the preparation of microsomal fractions. […] Mice were euthanised by carbon dioxide inhalation and the livers were removed and microsomes prepared. […] The livers from avian species (mallards and a swan) were kindly donated by a local bird hunting group based in Dunedin, New Zealand. The livers from avian species were treated similarly to those mentioned above for the possum samples.
# (§2) Microsomal preparation was carried out as previously described [76]. […] All procedures were performed at 0–4 °C. The liver samples were minced and homogenised in Buffer A (0.1 M Tris, 0.1 M potassium chloride, 1 mM EDTA, and 20 μM butylated hydroxytoluene, at pH = 7.4) using the Teflon-glass homogeniser (5–6 vertical passes). The samples were centrifuged at 10,000× g for 20 min. The supernatant was then transferred into another set of centrifuge tubes and spun at 100,000× g for 60 min. The pellet was resuspended in Buffer B (0.1 M potassium pyrophosphate, 1 mM EDTA, and 20 μM butylated hydroxytoluene, at pH = 7.4), homogenised, and recentrifuged at 100,000× g for 60 min. Finally, the pellet was homogenised in 1–2 mL of Buffer C (10 mM Tris-HCl, 1 mM EDTA, and 4% glycerol (v/v)), and stored at −80 °C until use. The protein concentration of the microsomes was determined using the bicinchoninic acid (BCA) method [77].
# (§3) CYP3A catalytic activity was determined using the erythromycin N-demethylation activity assay, as described [78]. The reaction mixture (final volume of 1 mL and final protein concentration of 1 mg) contained 500 µL of microsomes in 0.1 M phosphate buffer (pH 7.4) and 400 µL of erythromycin buffer (0.45 mM), and 50 µL of the test compound was pre-warmed at 37 °C for 2 min. The reaction was initiated with 50 µL of 2.5 mM nicotinamide adenine dinucleotide phosphate (NADP^+) and incubated for 30 min at 37 °C. […] The tubes were vortexed and left for 5 min (at room temperature), and then 330 µL of saturated barium hydroxide was added. The tubes were further vortexed and left for 5 min (at room temperature). The tubes were then centrifuged at 1800× g for 10 min. To 830 µL of the supernatant, 330 µL of Nash reagent (30% (w/v) ammonium acetate, 0.4% (v/v) acetylacetone) was added and further incubated for 30 min at 60 °C. The blank tube contained 330 µL of Nash reagent and 830 µL of Milli-Q water. […] The CYP3A activities were determined in nmol/mg/min using standard curve data. Results presented are the mean ± SEM of 3 independent experiments performed in duplicate unless otherwise stated.
# [2] = tested on: CYP3A; test: CYP3A catalytic activity (erythromycin N-demethylation) in mouse liver microsomes; conditions: for Percent control catalytic activity at estimated IC50 / Percent control catalytic activity at estimated 2-fold IC50: mouse liver microsomes, initial screen n=1; for Percent control catalytic activity at estimated IC50: compounds without reported IC50 at 1 µM; for Percent control catalytic activity at estimated 2-fold IC50: compounds without reported IC50 at 5 µM; for % of control (catalytic activity at 2-fold IC50) / Catalytic activity at 2-fold IC50 / % of control (catalytic activity at IC50) / inhibition of CYP3A catalytic activities at higher concentration: mouse; for % of control (catalytic activity at 2-fold IC50) / Catalytic activity at 2-fold IC50: compound at estimated 2-fold IC50 (5 µM where none reported); for % of control (catalytic activity at IC50): compound at estimated IC50 (1 µM where none reported); for inhibition of CYP3A catalytic activities at higher concentration: 10 µM
# [3] = tested on: CYP3A; test: CYP3A catalytic activity (erythromycin N-demethylation) in possum liver microsomes; conditions: for Percent control catalytic activity at estimated IC50 / Percent control catalytic activity at estimated 2-fold IC50: possum liver microsomes, initial screen n=1; for Percent control catalytic activity at estimated IC50: compounds without reported IC50 at 1 µM; for Percent control catalytic activity at estimated 2-fold IC50: compounds without reported IC50 at 5 µM; for % of control (catalytic activity at 2-fold IC50) / Catalytic activity at 2-fold IC50 / % of control (catalytic activity at IC50) / inhibition of CYP3A catalytic activities at higher concentration / reduced catalytic activity of possum CYP3A, % of the control: possum; for % of control (catalytic activity at 2-fold IC50) / Catalytic activity at 2-fold IC50: compound at estimated 2-fold IC50 (5 µM where none reported); for % of control (catalytic activity at IC50): compound at estimated IC50 (1 µM where none reported); for inhibition of CYP3A catalytic activities at higher concentration: 10 µM; for reduced catalytic activity of possum CYP3A, % of the control: mainly at 5 µM or an estimated 2-fold IC50, not significantly different
# Method: as §1, §2, §3
# [4] = tested on: CYP3A; test: CYP3A catalytic activity (erythromycin N-demethylation) in pooled human liver microsomes; conditions: for % of control (catalytic activity at 2-fold IC50) / Catalytic activity at 2-fold IC50: compound at estimated 2-fold IC50 (5 µM where none reported)
# Method: as §3
SMILES,% of control (catalytic activity at 2-fold IC50) [1],Catalytic activity at 2-fold IC50 [1],% of control (catalytic activity at IC50) [1],Percent control catalytic activity at estimated IC50 [2],Percent control catalytic activity at estimated 2-fold IC50 [2],% of control (catalytic activity at 2-fold IC50) [2],Catalytic activity at 2-fold IC50 [2],% of control (catalytic activity at IC50) [2],Percent control catalytic activity at estimated IC50 [3],Percent control catalytic activity at estimated 2-fold IC50 [3],% of control (catalytic activity at 2-fold IC50) [3],Catalytic activity at 2-fold IC50 [3],% of control (catalytic activity at IC50) [3],inhibition of CYP3A catalytic activities at higher concentration [2],inhibition of CYP3A catalytic activities at higher concentration [3],"reduced catalytic activity of possum CYP3A, % of the control [3]",% of control (catalytic activity at 2-fold IC50) [4],Catalytic activity at 2-fold IC50 [4],"activity at 30 min ([4]; human, pH 7.4, probe erythromycin, % of control (catalytic activity at IC50), compound at estimated IC50 (1 µM where none reported))"
CC(=O)c1ccccc1O [2'-Hydroxyacetophenone],102 % of control,0.36 ± 0.05 nmol/mg/min,101 % of control,112 percent control,80 percent control,75 % of control,0.35 ± 0.05 nmol/mg/min,129 % of control,108 percent control,105 percent control,102 % of control,0.29 ± 0.05 nmol/mg/min,120 % of control,,,,,,
O=C1c2ccccc2C(=O)c2c1ccc(O)c2O [Alizarin],94 % of control,0.30 ± 0.04 nmol/mg/min,,91 percent control,89 percent control,96 % of control,0.57 ± 0.06 nmol/mg/min,,70 percent control,77 percent control,84 % of control,0.27 ± 0.01 nmol/mg/min,,did not show any significant inhibition,did not show any significant inhibition,~ 35 % of the control,98 % of control,0.57 nmol/mg/min,
C/C1=C/CC[C@H](C)C(=O)C[C@@H](C(C)C)C(=O)C1 [Curdione],99 % of control,0.41 ± 0.04 nmol/mg/min,97 % of control,143 percent control,134 percent control,94 % of control,0.38 ± 0.05 nmol/mg/min,114 % of control,92 percent control,103 percent control,99 % of control,0.37 ± 0.03 nmol/mg/min,91 % of control,,,,,,
C[C@]12CC[C@H](O)CC1=CC[C@@H]1[C@@H]2CC[C@]2(C)C(n3cnc4ccccc43)=CC[C@@H]12 [Galeterone],,0.36 ± 0.04 nmol/mg/min,,88 percent control,86 percent control,105 % of control,0.63 ± 0.10 nmol/mg/min,,76 percent control,80 percent control,83 % of control,0.32 ± 0.02 nmol/mg/min,,did not show any significant inhibition,did not show any significant inhibition,~ 35 % of the control,114 % of control,0.61 nmol/mg/min,99%
CCc1oc2ccccc2c1C(=O)c1cc(Br)c(O)c(Br)c1 [Benzbromarone],104 % of control,0.34 ± 0.01 nmol/mg/min,,97 percent control,96 percent control,97 % of control,0.57 ± 0.08 nmol/mg/min,,83 percent control,78 percent control,80 % of control,0.26 ± 0.02 nmol/mg/min,,did not show any significant inhibition,did not show any significant inhibition,~ 35 % of the control,113 % of control,0.37 nmol/mg/min,
c1ccc2[nH]c(-c3cscn3)nc2c1 [Thiabendazole],,,,85 percent control,95 percent control,,,,94 percent control,92 percent control,,,,,,,,,
COc1c(OC)c2occc2c2oc(=O)ccc12 [Pimpinellin],,,,171 percent control,,,,,133 percent control,,,,,,,,,,
C=C[C@@H]1C2=CCOC(=O)C2=CO[C@H]1O[C@@H]1O[C@H](CO)[C@@H](O)[C@H](O)[C@H]1O [Gentiopicroside],114 % of control,0.32 ± 0.03 nmol/mg/min,,92 percent control,85 percent control,97 % of control,0.56 ± 0.12 nmol/mg/min,,98 percent control,83 percent control,82 % of control,0.29 ± 0.02 nmol/mg/min,,did not show any significant inhibition,did not show any significant inhibition,~ 35 % of the control,122 % of control,0.54 nmol/mg/min,
CC[C@@H]([C@H](C)O)n1ncn(-c2ccc(N3CCN(c4ccc(OC[C@@H]5CO[C@@](Cn6cncn6)(c6ccc(F)cc6F)C5)cc4)CC3)cc2)c1=O [Posaconazole],,,,101 percent control,74 percent control,,,,93 percent control,92 percent control,,,,,,,,,
O=c1cc(-c2ccc(O)cc2)oc2cc(O)cc(O)c12 [Apigenin],,,,116 percent control,106 percent control,,,,94 percent control,121 percent control,,,,,,,,,
Cc1ccc(-c2c(-c3nn(C)c4ncnc(N5CC[C@H](N6CCCCC6)C5)c34)cnn2C)cc1 [PF-4981517],,,,101 percent control,110 percent control,,,,98 percent control,108 percent control,,,,,,,,,
O=C([O-])C(O)Cc1ccc(O)c(O)c1.[Na+] (stereo not drawn) [Sodium Danshensu],,,,98 percent control,107 percent control,,,,116 percent control,118 percent control,,,,,,,,,
